This is an account of results in EP4745137A1 (Gluetacs Therapeutics (Shanghai) Co., Ltd., priority 2023, dated 2025).

In one test the target is T1, IKZF3 (Homo sapiens, UniProt Q96SW2+Q9UKT9).
T1 construct: endogenous in cells; host or cells: hPBMCs (Milecell Biotechnologies)
Put plainly: Western-blot assay of substrate protein degradation in hPBMCs, IKZF3. Format: cell-based. Conditions: 24 hours of compound treatment, 50 nM and 500 nM tested (concentration behind the class not stated).

A further test has as its target T2, CK1α (Homo sapiens, UniProt P48729+Q96SW2).
T2 construct: endogenous in cells; host or cells: hPBMCs (Milecell Biotechnologies)
Put plainly: Western-blot assay of substrate protein degradation in hPBMCs, CK1α. Format: cell-based. To be noted: 24 hours of compound treatment, 50 nM and 500 nM tested (concentration behind the class not stated).

The target in a further test is T3, IKZF2 (Homo sapiens, UniProt Q96SW2+Q9UKS7).
T3 construct: endogenous in cells; host or cells: hPBMCs (Milecell Biotechnologies)
Put plainly: Western-blot assay of substrate protein degradation in hPBMCs, IKZF2. Type of test: cell-based. To be noted: 24 hours of compound treatment, 50 nM and 500 nM tested (concentration behind the class not stated).

A further test deals with T4, IKZF1 (Homo sapiens, UniProt Q13422+Q96SW2).
T4 construct: endogenous in cells; host or cells: hPBMCs (Milecell Biotechnologies)
Nature of the test: Western-blot assay of substrate protein degradation in hPBMCs, IKZF1. Format: cell-based. To be noted: 24 hours of compound treatment, 50 nM and 500 nM tested (concentration behind the class not stated).

Another test addresses T5, WEE1 (Homo sapiens, UniProt P30291+Q96SW2).
T5 construct: endogenous in cells; host or cells: hPBMCs (Milecell Biotechnologies)
Nature of the test: Western-blot assay of substrate protein degradation in hPBMCs, WEE1. Conditions: 24 hours of compound treatment, 50 nM and 500 nM tested (concentration behind the class not stated). Format: cell-based.

Another test concerns the target T6, GSPT1 (Homo sapiens, UniProt P15170+Q96SW2).
T6 construct: endogenous in cells; host or cells: hPBMCs (Milecell Biotechnologies)
Put plainly: Western-blot assay of substrate protein degradation in hPBMCs, GSPT1. Type of test: cell-based. To be noted: 24 hours of compound treatment, 50 nM and 500 nM tested (concentration behind the class not stated).

The target in test [1] is T7, human Cereblon WT GST-tagged protein (Homo sapiens, UniProt Q96SW2).
T7 construct: purchased CISBIO 64BDCRBNPEH
Nature of the test: CRBN-binding affinity by HTRF (CEREBLON BINDING kit). Conditions: HTRF inhibitory activity, CEREBLON BINDING kit; read-out: HTRF IC50.

T7 sequence (Q96SW2 whole entry): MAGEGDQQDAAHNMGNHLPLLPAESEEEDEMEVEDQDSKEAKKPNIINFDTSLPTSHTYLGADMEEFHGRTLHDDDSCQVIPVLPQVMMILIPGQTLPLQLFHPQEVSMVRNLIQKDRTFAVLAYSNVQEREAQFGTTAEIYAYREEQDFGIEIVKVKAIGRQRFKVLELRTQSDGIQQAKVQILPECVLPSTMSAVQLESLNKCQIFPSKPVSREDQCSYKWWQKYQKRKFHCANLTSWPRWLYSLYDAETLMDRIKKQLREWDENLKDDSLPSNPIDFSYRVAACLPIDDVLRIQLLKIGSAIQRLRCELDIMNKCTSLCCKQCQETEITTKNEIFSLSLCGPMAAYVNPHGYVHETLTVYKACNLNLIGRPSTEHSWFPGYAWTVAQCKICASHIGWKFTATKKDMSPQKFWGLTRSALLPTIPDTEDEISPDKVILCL
T4 sequence (Q13422 whole entry): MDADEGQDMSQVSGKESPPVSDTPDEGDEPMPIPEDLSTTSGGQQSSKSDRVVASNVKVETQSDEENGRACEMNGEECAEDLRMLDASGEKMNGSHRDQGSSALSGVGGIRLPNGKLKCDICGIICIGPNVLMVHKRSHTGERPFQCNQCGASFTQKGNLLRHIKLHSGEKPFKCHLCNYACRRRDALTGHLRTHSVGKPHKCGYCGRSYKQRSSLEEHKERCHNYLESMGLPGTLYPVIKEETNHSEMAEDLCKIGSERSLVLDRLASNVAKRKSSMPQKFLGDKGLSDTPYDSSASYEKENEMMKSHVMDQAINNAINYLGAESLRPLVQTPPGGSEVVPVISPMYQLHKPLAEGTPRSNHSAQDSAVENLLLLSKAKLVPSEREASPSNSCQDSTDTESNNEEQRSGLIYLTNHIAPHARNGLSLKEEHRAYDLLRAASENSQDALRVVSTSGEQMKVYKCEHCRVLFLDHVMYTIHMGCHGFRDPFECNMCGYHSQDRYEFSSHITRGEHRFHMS
T4 sequence (Q96SW2 whole entry): as the sequence (Q96SW2 whole entry) above
T4 sequence (Q16531 whole entry partner): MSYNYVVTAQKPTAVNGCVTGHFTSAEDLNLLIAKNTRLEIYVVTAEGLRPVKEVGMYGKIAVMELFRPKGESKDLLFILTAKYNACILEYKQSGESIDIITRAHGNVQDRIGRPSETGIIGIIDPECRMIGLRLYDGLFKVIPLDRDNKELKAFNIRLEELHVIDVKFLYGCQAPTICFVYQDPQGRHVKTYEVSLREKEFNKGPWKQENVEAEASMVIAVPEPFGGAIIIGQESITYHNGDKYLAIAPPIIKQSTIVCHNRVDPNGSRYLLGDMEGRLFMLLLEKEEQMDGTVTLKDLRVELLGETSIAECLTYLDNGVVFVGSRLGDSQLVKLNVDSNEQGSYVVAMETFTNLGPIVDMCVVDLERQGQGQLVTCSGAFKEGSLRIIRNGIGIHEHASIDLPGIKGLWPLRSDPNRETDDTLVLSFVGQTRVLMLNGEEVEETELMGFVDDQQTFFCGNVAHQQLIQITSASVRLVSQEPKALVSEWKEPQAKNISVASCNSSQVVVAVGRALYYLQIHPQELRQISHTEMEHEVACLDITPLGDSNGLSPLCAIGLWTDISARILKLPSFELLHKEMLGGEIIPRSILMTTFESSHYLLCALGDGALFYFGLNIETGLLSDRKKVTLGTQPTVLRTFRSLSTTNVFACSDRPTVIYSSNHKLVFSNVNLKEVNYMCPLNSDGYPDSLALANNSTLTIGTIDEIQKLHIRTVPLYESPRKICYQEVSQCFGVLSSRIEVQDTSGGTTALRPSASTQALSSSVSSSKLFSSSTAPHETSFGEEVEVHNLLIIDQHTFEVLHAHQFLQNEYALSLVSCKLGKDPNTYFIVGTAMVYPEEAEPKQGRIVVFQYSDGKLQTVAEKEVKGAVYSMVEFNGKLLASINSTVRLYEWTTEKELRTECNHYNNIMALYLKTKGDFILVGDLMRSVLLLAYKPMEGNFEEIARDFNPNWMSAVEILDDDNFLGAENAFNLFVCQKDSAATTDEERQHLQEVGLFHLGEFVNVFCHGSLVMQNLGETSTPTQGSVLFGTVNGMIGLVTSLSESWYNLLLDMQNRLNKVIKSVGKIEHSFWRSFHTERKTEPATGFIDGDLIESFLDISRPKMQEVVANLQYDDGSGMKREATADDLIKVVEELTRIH
T1 sequence (Q9UKT9 whole entry): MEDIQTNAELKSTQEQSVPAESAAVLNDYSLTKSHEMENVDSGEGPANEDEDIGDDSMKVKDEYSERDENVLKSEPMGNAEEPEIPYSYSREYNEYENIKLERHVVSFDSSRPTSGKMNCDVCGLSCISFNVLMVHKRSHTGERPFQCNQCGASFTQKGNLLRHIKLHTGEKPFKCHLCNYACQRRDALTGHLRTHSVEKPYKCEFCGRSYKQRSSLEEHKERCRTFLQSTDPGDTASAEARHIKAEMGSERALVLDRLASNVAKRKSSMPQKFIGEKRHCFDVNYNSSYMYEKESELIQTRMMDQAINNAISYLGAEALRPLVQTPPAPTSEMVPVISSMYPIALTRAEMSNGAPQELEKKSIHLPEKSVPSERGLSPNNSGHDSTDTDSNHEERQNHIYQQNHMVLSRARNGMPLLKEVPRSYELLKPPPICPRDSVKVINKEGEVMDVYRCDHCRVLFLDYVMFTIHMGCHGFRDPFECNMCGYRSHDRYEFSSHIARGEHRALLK
T1 sequence (Q96SW2 whole entry): as the sequence (Q96SW2 whole entry) above
T1 sequence (Q16531 whole entry partner): as the sequence (Q16531 whole entry partner) above
T5 sequence (P30291 whole entry): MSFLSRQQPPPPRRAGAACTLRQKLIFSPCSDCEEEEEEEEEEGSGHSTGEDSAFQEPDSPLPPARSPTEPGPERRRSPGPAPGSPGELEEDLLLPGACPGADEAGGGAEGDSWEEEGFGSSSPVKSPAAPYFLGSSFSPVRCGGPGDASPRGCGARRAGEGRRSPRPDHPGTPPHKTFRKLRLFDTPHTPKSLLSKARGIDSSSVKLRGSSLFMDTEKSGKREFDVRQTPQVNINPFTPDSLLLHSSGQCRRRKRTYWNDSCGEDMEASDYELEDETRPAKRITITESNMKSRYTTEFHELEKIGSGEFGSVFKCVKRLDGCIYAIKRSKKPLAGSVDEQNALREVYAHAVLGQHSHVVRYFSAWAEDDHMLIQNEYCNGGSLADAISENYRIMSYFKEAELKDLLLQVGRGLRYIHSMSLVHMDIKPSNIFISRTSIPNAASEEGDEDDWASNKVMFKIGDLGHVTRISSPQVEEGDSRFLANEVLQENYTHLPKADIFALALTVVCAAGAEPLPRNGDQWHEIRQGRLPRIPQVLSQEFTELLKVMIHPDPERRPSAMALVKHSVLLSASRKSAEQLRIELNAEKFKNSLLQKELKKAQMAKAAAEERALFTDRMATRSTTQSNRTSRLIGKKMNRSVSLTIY
T5 sequence (Q96SW2 whole entry): as the sequence (Q96SW2 whole entry) above
T5 sequence (Q16531 whole entry partner): as the sequence (Q16531 whole entry partner) above
T6 sequence (P15170 whole entry): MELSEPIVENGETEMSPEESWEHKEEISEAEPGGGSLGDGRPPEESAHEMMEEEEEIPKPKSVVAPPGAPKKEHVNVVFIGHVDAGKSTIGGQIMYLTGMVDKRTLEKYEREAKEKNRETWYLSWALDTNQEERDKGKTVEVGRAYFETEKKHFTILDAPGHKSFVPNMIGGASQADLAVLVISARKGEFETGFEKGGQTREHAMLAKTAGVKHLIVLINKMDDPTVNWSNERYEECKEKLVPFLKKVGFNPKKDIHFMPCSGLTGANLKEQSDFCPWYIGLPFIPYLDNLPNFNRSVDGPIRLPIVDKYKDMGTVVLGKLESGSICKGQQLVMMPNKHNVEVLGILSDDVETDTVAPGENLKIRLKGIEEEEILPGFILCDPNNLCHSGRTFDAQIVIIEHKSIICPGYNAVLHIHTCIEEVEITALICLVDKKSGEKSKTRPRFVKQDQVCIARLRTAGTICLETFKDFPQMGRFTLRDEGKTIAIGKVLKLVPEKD
T6 sequence (Q96SW2 whole entry): as the sequence (Q96SW2 whole entry) above
T6 sequence (Q16531 whole entry partner): as the sequence (Q16531 whole entry partner) above
T3 sequence (Q9UKS7 whole entry): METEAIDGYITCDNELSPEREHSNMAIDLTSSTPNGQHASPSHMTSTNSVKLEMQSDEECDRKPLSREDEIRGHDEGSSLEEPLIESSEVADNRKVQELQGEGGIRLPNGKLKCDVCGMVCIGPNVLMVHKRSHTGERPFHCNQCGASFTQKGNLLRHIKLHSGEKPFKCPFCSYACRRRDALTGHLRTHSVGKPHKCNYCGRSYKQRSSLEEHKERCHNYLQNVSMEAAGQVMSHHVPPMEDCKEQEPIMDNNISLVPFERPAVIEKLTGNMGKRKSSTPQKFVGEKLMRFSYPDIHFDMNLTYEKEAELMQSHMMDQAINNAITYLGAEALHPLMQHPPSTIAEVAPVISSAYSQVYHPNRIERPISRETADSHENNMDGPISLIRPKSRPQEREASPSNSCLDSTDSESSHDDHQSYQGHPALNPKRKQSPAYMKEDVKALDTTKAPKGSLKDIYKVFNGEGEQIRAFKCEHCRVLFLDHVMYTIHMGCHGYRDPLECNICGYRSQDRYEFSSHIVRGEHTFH
T3 sequence (Q96SW2 whole entry): as the sequence (Q96SW2 whole entry) above
T3 sequence (Q16531 whole entry partner): as the sequence (Q16531 whole entry partner) above

Take `CC(C)c1cc2c(N3CCN(Cc4ccc5c(c4)C(=O)N(C4CCC(=O)NC4=O)C5=O)CC3)ncnc2s1` (stereo not shown) [GT-06306, 2-(2,6-dioxopiperidin-3-yl)-5-((4-(6-isopropylthieno[2,3-d]pyrimidin-4-yl)piperazin-1-yl)methyl)isoindoline-1,3-dione]: the “IKZF3 substrate protein remaining %” value on IKZF3 is reported as “A (0% ≤ substrate protein remaining % ≤ 80%)”. Also, the “CK1a substrate protein remaining %” value on CK1α is on record as “A (0% ≤ substrate protein remaining % ≤ 80%)”. The “IKZF2 substrate protein remaining %” value at IKZF2 is reported as “A (0% ≤ substrate protein remaining % ≤ 80%)”. For the same molecule, the “IKZF 1 substrate protein remaining %” value at IKZF1 is “A (0% ≤ substrate protein remaining % ≤ 80%)”. Moreover, the “Weel substrate protein remaining %” value at WEE1 is on record as “B (80%< substrate protein remaining %≤ 100%)”. The “GSPT1 substrate protein remaining %” value at GSPT1 is given as “A (0% ≤ substrate protein remaining % ≤ 80%)”. Besides, in test [1], the IC50 is 1.5 to 1.9 µM.
On to `O=C1CCC(N2C(=O)c3ccc(CN4CCN(c5ncnc6sc(Br)cc56)CC4)cc3C2=O)C(=O)N1` (stereo not shown) [GT-06309, 5-((4-(6-bromothieno[2,3-d]pyrimidin-4-yl)piperazin-1-yl)methyl)-2-(2,6-dioxopiperidin-3-yl)isoindoline-1,3-dione], for which, on IKZF3, the “IKZF3 substrate protein remaining %” value is “A (0% ≤ substrate protein remaining % ≤ 80%)”. Moreover, the “CK1a substrate protein remaining %” value at CK1α was “B (80%< substrate protein remaining %≤ 100%)”. In addition, the “IKZF2 substrate protein remaining %” value on IKZF2 is “A (0% ≤ substrate protein remaining % ≤ 80%)”. Further, the “IKZF 1 substrate protein remaining %” value on IKZF1 is reported as “A (0% ≤ substrate protein remaining % ≤ 80%)”. Further, the “Weel substrate protein remaining %” value on WEE1 was “B (80%< substrate protein remaining %≤ 100%)”. In addition, the “GSPT1 substrate protein remaining %” value at GSPT1 is listed as “B (80%< substrate protein remaining %≤ 100%)”. In test [1], the IC50 lay within 1.5 to 1.9 µM.
As to `Cc1nc(N2CCN(Cc3ccc4c(c3)C(=O)N(C3CCC(=O)NC3=O)C4=O)CC2)c2c3c(sc2n1)CCCC3` (stereo not shown) [GT-06348, 2-(2,6-dioxopiperidin-3-yl)-5-((4-(2-methyl-5,6,7,8-tetrahydrobenzo[4,5]thieno[2,3-d]pyrimidin-4-yl)piperazin-1-yl)methyl)isoindoline-1,3-dione], on IKZF3, the “IKZF3 substrate protein remaining %” value was “A (0% ≤ substrate protein remaining % ≤ 80%)”. In addition, the “CK1a substrate protein remaining %” value at CK1α is “A (0% ≤ substrate protein remaining % ≤ 80%)”. Besides, the “IKZF2 substrate protein remaining %” value on IKZF2 was “A (0% ≤ substrate protein remaining % ≤ 80%)”. At IKZF1, the “IKZF 1 substrate protein remaining %” value was “A (0% ≤ substrate protein remaining % ≤ 80%)”. On WEE1, the “Weel substrate protein remaining %” value is given as “A (0% ≤ substrate protein remaining % ≤ 80%)”. The “GSPT1 substrate protein remaining %” value on GSPT1 was “A (0% ≤ substrate protein remaining % ≤ 80%)”. Moreover, the IC50 in test [1] lay in the range of 1 to 1.5 µM.
Consider `O=C1CCC(N2C(=O)c3ccc(CN4CCN(c5ncnc6sc7c(c56)CCCC7)CC4)cc3C2=O)C(=O)N1` (stereo not shown) [GT-06564, 2-(2,6-dioxopiperidin-3-yl)-5-((4-(5,6,7,8-tetrahydrobenzo[4,5]thieno[2,3-d]pyrimidin-4-yl)piperazin-1-yl)methyl)isoindoline-1,3-dione], for which the “IKZF3 substrate protein remaining %” value at IKZF3 is “A (0% ≤ substrate protein remaining % ≤ 80%)”. For the same molecule, the “CK1a substrate protein remaining %” value on CK1α is “A (0% ≤ substrate protein remaining % ≤ 80%)”. For the same molecule, the “IKZF2 substrate protein remaining %” value at IKZF2 is on record as “A (0% ≤ substrate protein remaining % ≤ 80%)”. Further, the “IKZF 1 substrate protein remaining %” value on IKZF1 was “A (0% ≤ substrate protein remaining % ≤ 80%)”. The “Weel substrate protein remaining %” value at WEE1 is “A (0% ≤ substrate protein remaining % ≤ 80%)”. Also, the “GSPT1 substrate protein remaining %” value at GSPT1 is on record as “A (0% ≤ substrate protein remaining % ≤ 80%)”. The IC50 in test [1] was 0.5 to 1 µM.
